Among the data in patent publication US7888329B2, “Substituted aryl piperidinylalkynyladenosines as A2AR agonists” (PGxHealth, LLC, priority 2006, dated 2011) are Ki and EC50 values, retold here.

Where two headings read alike, the source gives them in different places.

Test [1] addresses T1, human A1 AR (Homo sapiens, UniProt P30542).
T1 construct: expressed in transfected cells; membranes
T1 sequence (P30542 1-326): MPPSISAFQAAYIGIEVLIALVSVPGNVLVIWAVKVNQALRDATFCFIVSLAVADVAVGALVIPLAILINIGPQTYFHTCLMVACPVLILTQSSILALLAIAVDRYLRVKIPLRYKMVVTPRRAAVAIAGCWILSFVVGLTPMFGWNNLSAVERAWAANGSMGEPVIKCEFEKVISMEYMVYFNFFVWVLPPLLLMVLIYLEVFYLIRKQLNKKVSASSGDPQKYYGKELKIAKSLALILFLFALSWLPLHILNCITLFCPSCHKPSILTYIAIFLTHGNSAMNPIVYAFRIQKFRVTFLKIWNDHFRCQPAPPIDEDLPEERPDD
In words: Radioligand competition binding with 125I-ABA, membranes of CHO K1 cells stably expressing the receptor. To be noted: Ki derived from IC50, class symbols.

The target in test [2] is T2, human A3 AR (Homo sapiens, UniProt P0DMS8).
T2 construct: expressed in transfected cells; membranes
T2 sequence (P0DMS8 1-318): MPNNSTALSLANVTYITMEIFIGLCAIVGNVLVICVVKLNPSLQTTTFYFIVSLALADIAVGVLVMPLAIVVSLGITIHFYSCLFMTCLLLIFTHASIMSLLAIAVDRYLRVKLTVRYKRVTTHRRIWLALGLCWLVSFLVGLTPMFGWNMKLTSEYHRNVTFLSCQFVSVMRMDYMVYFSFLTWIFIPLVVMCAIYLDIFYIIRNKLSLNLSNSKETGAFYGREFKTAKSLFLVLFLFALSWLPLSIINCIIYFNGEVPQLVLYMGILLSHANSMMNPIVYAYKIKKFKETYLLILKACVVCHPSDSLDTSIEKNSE
In words: Radioligand competition binding with 125I-ABA, membranes of HEK 293 cells stably expressing the receptor. To be noted: Ki derived from IC50, class symbols. The procedure, abridged:
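Triplicate binding with 25 μg membrane protein and 0.5-1 nM agonist radioligand in HE buffer with 1 U/mL adenosine deaminase and 5 mM MgCl2, ±50 μM GTPγS, 3 h at room temperature, then filtration. Nonspecific binding with 50 μM NECA; Ki from IC50 corrected for radioligand and competitor depletion.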
(Loss of bound radioactivity is the signal in a displacement assay; it reports binding, not function.)

Test [3] has as its target T3, recombinant human A2A receptors (Homo sapiens, UniProt P29274).
T3 construct: expressed in transfected cells; host or cells: Sf9 insect cells infected with virus; membranes
The experiment in a line: Radioligand competition binding with 125I-APE or 125I-ZM241385, Sf9 cell membranes. To be noted: 125I-APE or 125I-ZM241385, Sf9 membranes; class symbols. A digest of the protocol: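 Membranes (5 μg for A2A; 25 μg for A1) incubated with radioligand at room temperature, 3 h for agonists or 2 h for antagonists, in HE buffer with 1 U/mL adenosine deaminase and 5 mM MgCl2, ± 50 μM GTPγS. Assays ended by filtration; nonspecific binding defined with 50 μM NECA.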

Test [4] deals with Purified human neutrophils. The experiment in a line: Luminol enhanced chemiluminescence (neutrophil oxidative activity), fMLP stimulated. To be noted: read-out: Functional. It is filed as cell-based.

T3 sequence (P29274 whole entry): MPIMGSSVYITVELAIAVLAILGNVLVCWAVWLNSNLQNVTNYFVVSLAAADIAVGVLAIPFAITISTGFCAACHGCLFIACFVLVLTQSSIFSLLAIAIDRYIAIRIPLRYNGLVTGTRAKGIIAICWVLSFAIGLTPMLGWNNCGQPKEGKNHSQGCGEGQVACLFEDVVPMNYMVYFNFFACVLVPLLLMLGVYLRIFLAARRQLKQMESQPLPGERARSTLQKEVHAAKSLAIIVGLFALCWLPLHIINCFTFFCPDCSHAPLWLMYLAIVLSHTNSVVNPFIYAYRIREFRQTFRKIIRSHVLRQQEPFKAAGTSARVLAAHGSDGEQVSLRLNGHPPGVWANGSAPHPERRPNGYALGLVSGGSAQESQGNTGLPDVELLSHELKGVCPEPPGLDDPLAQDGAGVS

For `Nc1nc(C#CCC2CCN(C(=O)Oc3ccc(F)c(F)c3)CC2)nc2c1ncn2[C@@H]1O[C@H](C(=O)NC2CC2)C(O)[C@@H]1O` (stereo partly shown) [Compound 52, N-Cyclopropyl 2-{3-[1-(3,4-fluorophenoxycarbonyl)-4-piperidinyl]-1-propyn-1-yl}adenosine-5′-uronamide], the Ki in test [1] was less than 100 nM; in test [2], less than 100 nM; in test [3] it was less than 1 nM. In addition, in test [4] (Homo sapiens, Neutrophil), the EC50 was less than 1 nM.

In the case of `Cc1ccc(OC(=O)N2CCC(CC#Cc3nc(N)c4ncn([C@@H]5O[C@H](CO)[C@@H](O)[C@H]5O)c4n3)CC2)cc1C` [Compound 53, 2-{3-[1-((3,4-Dimethyl)phenoxycarbanoyl)piperidin-4-yl]propyn-1-yl}adenosine], the Ki in test [1] is less than 100 nM; in test [2] it was less than 100 nM; in test [3], less than 1 nM. In test [4] (Homo sapiens, Neutrophil), the EC50 was less than 10 nM.

In the case of `Nc1nc(C#CCC2CCN(C(=O)Oc3ccc(F)c(F)c3)CC2)nc2c1ncn2[C@@H]1O[C@H](CO)[C@@H](O)[C@H]1O` [Compound 54, 2-{3-[1-((3,4-Difluoro)phenoxycarbanoyl)piperidin-4-yl]propyn-1-yl}adenosine], the Ki in test [1] was less than 100 nM; in test [2] it was less than 100 nM; in test [3], less than 1 nM. The EC50 in test [4] (Homo sapiens, Neutrophil) is less than 10 nM.

Regarding `Nc1nc(C#CCC2CCN(C(=O)Oc3ccc(Cl)c(Cl)c3)CC2)nc2c1ncn2[C@@H]1O[C@H](CO)C(O)[C@@H]1O` (stereo partly shown) [Compound 55, 2-{3-[1-((3,4-Chloro)phenoxycarbanoyl)piperidin-4-yl]propyn-1-yl}adenosine], the figures for the Ki in test [1], in test [2] and in test [3] were less than 100 nM, less than 10 nM and less than 1 nM, respectively. Also, the EC50 in test [4] (Homo sapiens, Neutrophil) is less than 10 nM.

On to `Nc1nc(C#CCC2CCN(C(=O)Oc3cccc([N+](=O)[O-])c3)CC2)nc2c1ncn2[C@@H]1O[C@H](C(=O)NC2CC2)C(O)[C@@H]1O` (stereo partly shown) [Compound 56, N-Cyclopropyl 2-{3-[1-(3-nitrophenoxycarbonyl)-4-piperidinyl]-1-propyn-1-yl}adenosine-5′-uronamide], for which the Ki in test [1] is less than 100 nM; in test [2], greater than 100 nM; in test [3] it was less than 1 nM. The EC50 in test [4] (Homo sapiens, Neutrophil) was less than 1 nM.

Turning to `Nc1nc(C#CCC2CCN(C(=O)Oc3ccc(Br)cc3Br)CC2)nc2c1ncn2[C@@H]1O[C@H](C(=O)NC2CC2)C(O)[C@@H]1O` (stereo partly shown) [Compound 57, N-Cyclopropyl 2-{3-[1-(2,4-bromophenoxycarbonyl)-4-piperidinyl]-1-propyn-1-yl}adenosine-5′-uronamide], the Ki was less than 100 nM in test [1], less than 100 nM in test [2] and less than 1 nM in test [3]. For the same compound, the EC50 in test [4] (Homo sapiens, Neutrophil) was less than 10 nM.

Consider “N-Cyclopropyl 2-{3-[1-((4-amino)benzyloxycarbanoyl)-4-piperidinyl]propyn-1-yl}adenosine-5′-uronamide [Compound 48]”, for which the Ki was greater than 100 nM in test [1], greater than 100 nM in test [2] and less than 10 nM in test [3]. For the same compound, the EC50 in test [4] (EC50 of peak chemiluminescence, human PMN, rolipram 100 nM, fMLP, three donors, class symbols) is less than 10 nM.

The term Ki denotes the dissociation constant of the complex between target and ligand, obtained from inhibition or displacement.
